Earlier results on two molecules are cited in paper PMC5598522 (Toxicology Reports, 2014).

The conditions of data set [1]: cited from earlier work.
The conditions of data set [2]: Wistar rats; cited from earlier work.
The test system of a further data set is rats. The following applies: cited from earlier work.

In the case of `COC(=O)[C@H](c1ccccc1Cl)N1CCc2sccc2C1` [Clopidogrel], in data set [1], the “Tumor incidences in 2 year carcinogenicity bioassay” value is recorded as “did not alter tumor incidences”.
In the case of `CC(C)C[C@H]1C(=O)N2CCC[C@H]2[C@]2(O)O[C@](NC(=O)[C@@H]3C=C4c5cccc6[nH]c(Br)c(c56)C[C@H]4N(C)C3)(C(C)C)C(=O)N12` [bromocriptine], the Weight gain entry in data set [2] was “inhibited weight gain”. The “Uterine and mammary tumors” value in the data set with rats was “increases uterine and decreases mammary tumors only in rats”.
